According to PubChem BioAssay AID652132 (Broad Institute, 2013):

System: Signal transducer and activator of transcription 1 (STAT1), rat
Assay: STAT1 level and phosphorylation inhibition – cell-based, rat, cytokine stimulus, time course, mechanism study, late-stage follow-up (AID 652132)
Settings: INS-1E cells, cytokine-induced STAT1/pSTAT1 western blot, at 10 µM, stronger effect = higher value

p-STAT1 inhibition, 24 h: 65%
inhibition (measured here: p-STAT1 inhibition 8 h): 97%
inhibition (measured here: p-STAT1 inhibition 12 h): 80%
inhibition (measured here: total STAT1 inhibition 8 h): 69%
inhibition (measured here: total STAT1 inhibition 12 h): 53%
inhibition (measured here: total STAT1 inhibition 24 h): 43%
Structure (SMILES): C[C@@H]1CN([C@@H](C)CO)C(=O)c2cccc(NC(=O)Nc3cccc4ccccc34)c2O[C@H]1CN(C)S(=O)(=O)c1ccc2c(c1)OCCO2
